ChEMBL document CHEMBL1201862, “PubChem BioAssay data set” (2004)
Calls of active or inactive are those of the source.

What was measured:
Vero [1] = assay: cells; assay type: functional, cell-based, Chlorocebus sabaeus; conditions: Chlorocebus sabaeus, Vero
[2] = biological target: T1, Ubiquitin-conjugating enzyme E2 N (Homo sapiens, UniProt P61088); assay type: functional;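 note: Dose-response confirmation in a TR-FRET assay detecting UBC13-driven polyubiquitin chain formation, inhibition measured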
T1 sequence (P61088 whole entry): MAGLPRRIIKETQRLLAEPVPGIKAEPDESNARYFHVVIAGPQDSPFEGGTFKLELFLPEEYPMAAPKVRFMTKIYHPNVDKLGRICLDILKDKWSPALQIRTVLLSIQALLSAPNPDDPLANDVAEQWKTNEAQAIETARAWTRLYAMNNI

[3] = inhibitors of firefly luciferase expression or activity, dose response, H4 neuroglioma cells, luminescence (AID 1990); assay type: functional, cell-based
Vero [4] = assay: cells; assay type: functional, Chlorocebus sabaeus; conditions: Chlorocebus sabaeus, Vero
[5] = Luminescence Cell-Based Dose Response HTS to Identify Inhibitors of 5'UTR Stem-Loop Driven Prion Protein mRNA Translation in H4 Neuroglioblastoma Cells. [Related pubchem assays: 1827 (Project Summary), 1813 (Primary HTS)]; assay type: functional
[6] = inhibitors of SNCA 5'UTR-driven reporter translation, confirmation, H4 neuroglioma cells, luminescence (AID 1988); assay type: functional, cell-based
[7] = growth suppression of beta-catenin-knockout colon cells, dose response, cell-based, HCT116, human colon tumor (AID 1045); assay type: functional;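 note: HCT116 colon tumor cells with beta catenin knocked out; cells exposed to compound for 60 hours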
[8] = growth suppression of PTEN-null colon cells, dose response, cell-based, HCT116 PTEN knockout (AID 1047); assay type: functional;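 note: HCT116 colon tumor cells with PTEN knocked out; cells exposed to compound for 60 hours before readout; potency for loss of cell viability measured by luminescence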
[9] = microbe, parasite or virus in culture; assay type: functional; conditions: Mycobacterium tuberculosis
[10] = inhibitors of intracellular T. cruzi replication, confirmation, NIH3T3 host cells, beta-gal luminescence (AID 2044); assay type: functional, cell-based;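 note: intracellular parasites grown in NIH/3T3 mouse fibroblasts as host cells; luminescent beta-galactosidase reporter signal from transgenic T. cruzi replicating inside host cells; inhibitors lower the luminescence signal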
[11] = cytotoxicity toward NIH3T3 fibroblasts, dose response, counter-screen, cell-based, ATP luminescence, mouse fibroblasts (AID 2010); assay type: functional;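 note: cells exposed to compound for about 90 hours before reading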
cells [12] = assay: cells
[13] = Luminescence Cell-Based Dose Response HTS to Identify Activators of Luciferase Translation or Activity in H4 […] Cells. [Related pubchem assays: 1829 (Project Summary), 1814 (Primary HTS)]; assay type: functional
cells [14] = assay type: functional
[15] = Luminescence Cell-Based Dose Confirmation HTS to Identify Activators of 5'UTR Stem-Loop Driven Alpha-Synuclein mRNA Translation in H4 Neuroglioblastoma Cells. [Related pubchem assays: 1829 (Project Summary), 1814 (Primary HTS)]; assay type: functional
[16] = THP-1 cell cytotoxicity, dose response, cytotoxicity control for non-replicating M. tuberculosis project (AID 489025); assay type: functional
H4 = assay: Luminescence Cell-Based Dose Response HTS to Identify Activators of 5'UTR Stem-Loop Driven Prion Protein mRNA Translation in H4 Neuroglioblastoma Cells. [Related pubchem assays: 1829 (Project Summary), 1814 (Primary HTS)]; assay type: functional; conditions: Homo sapiens
Large T antigen = Large T antigen (Simian virus 40, UniProt P03070); assay type: functional, Betapolyomavirus macacae;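 note: Confirmatory-stage PubChem screen for compounds that inhibit SV40 T antigen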
Large T antigen, sequence (P03070 whole entry): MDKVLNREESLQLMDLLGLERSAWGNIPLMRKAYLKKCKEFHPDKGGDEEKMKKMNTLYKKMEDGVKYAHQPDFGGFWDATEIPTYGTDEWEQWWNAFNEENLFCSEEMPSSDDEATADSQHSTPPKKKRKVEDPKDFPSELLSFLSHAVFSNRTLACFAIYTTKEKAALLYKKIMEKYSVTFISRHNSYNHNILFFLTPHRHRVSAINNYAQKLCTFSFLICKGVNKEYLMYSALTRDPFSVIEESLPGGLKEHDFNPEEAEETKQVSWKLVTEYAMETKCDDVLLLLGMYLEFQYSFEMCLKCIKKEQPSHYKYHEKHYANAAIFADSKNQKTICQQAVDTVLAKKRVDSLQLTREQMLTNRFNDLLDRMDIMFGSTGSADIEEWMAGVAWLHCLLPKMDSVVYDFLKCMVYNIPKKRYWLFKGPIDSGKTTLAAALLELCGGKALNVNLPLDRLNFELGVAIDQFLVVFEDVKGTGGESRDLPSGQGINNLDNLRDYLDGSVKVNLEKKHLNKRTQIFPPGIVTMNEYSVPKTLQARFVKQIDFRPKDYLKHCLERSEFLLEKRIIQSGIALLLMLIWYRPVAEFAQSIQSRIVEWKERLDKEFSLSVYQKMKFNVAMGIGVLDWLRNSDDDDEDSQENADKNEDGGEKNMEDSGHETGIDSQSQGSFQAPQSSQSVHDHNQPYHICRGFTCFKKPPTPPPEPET

[17] = biological target: Luciferin 4-monooxygenase (Photinus pyralis, UniProt P08659); assay: firefly luciferase enzyme inhibitors, dose response, biochemical, luminescence (AID 1891)
Luciferin 4-monooxygenase, sequence (P08659 whole entry): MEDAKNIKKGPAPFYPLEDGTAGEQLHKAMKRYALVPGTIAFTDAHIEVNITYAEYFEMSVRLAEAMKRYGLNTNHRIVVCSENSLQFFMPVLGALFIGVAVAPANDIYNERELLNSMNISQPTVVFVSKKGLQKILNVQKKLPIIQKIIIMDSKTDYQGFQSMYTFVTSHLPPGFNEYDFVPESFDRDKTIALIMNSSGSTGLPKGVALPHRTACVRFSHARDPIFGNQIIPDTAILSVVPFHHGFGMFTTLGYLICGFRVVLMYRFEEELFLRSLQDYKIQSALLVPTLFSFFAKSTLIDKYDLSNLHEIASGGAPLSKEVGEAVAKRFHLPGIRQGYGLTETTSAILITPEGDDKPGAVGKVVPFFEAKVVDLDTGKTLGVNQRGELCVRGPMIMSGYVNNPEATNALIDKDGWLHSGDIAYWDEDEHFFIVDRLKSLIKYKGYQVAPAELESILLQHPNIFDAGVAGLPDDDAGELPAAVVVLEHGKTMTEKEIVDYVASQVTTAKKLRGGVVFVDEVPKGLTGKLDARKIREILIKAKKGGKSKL

INS1 = assay: beta cell apoptosis inhibitors, cytokine rescue, dose response, luminescence, retest (AID 449756); assay type: functional, cell-based; conditions: Rattus norvegicus;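 note: cell death triggered by IL-1 beta plus TNF-alpha plus IFN-gamma mixture; protective hits raise ATP signal compared with cytokine alone wells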
Protein RecA = biological target: T2, Protein RecA (Mycobacterium tuberculosis, UniProt P9WHJ3); assay: Fluorescence Cell-Free Homogeneous Dose Retest to Identify Inhibitors of RecA-Intein Splicing Activity. [Related pubchem assays (depositor defined):AID2097, AID2223, AID489010, AID492950]; assay type: functional
T2 sequence (P9WHJ3 whole entry): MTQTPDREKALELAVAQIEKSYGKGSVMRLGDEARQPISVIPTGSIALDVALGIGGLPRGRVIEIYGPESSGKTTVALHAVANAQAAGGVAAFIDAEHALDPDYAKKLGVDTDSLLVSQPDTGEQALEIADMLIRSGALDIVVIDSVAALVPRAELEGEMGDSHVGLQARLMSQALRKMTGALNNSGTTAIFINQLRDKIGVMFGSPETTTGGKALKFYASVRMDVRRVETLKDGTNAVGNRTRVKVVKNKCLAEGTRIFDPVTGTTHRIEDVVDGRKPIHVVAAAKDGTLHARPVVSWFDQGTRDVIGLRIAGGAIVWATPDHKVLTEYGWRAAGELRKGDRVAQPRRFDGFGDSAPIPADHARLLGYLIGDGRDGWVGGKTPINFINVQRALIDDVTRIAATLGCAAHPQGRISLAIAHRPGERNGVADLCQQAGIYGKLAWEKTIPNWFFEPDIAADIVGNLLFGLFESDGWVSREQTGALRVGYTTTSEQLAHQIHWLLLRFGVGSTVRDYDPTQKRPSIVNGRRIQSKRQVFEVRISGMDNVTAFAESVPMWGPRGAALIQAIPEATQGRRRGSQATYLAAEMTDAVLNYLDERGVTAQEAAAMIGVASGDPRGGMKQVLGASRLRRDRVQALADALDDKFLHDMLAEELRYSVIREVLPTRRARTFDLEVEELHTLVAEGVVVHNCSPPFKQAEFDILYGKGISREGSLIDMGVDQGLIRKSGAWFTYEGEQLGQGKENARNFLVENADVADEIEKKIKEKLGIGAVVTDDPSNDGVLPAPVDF

[18] = biological target: T3, Replicative DNA helicase DnaB (Mycobacterium tuberculosis, UniProt P9WMR3); assay: DnaB intein splicing inhibitors, dose response, biochemical, cell-free fluorescence (AID 449749); assay type: functional
T3 sequence (P9WMR3 whole entry): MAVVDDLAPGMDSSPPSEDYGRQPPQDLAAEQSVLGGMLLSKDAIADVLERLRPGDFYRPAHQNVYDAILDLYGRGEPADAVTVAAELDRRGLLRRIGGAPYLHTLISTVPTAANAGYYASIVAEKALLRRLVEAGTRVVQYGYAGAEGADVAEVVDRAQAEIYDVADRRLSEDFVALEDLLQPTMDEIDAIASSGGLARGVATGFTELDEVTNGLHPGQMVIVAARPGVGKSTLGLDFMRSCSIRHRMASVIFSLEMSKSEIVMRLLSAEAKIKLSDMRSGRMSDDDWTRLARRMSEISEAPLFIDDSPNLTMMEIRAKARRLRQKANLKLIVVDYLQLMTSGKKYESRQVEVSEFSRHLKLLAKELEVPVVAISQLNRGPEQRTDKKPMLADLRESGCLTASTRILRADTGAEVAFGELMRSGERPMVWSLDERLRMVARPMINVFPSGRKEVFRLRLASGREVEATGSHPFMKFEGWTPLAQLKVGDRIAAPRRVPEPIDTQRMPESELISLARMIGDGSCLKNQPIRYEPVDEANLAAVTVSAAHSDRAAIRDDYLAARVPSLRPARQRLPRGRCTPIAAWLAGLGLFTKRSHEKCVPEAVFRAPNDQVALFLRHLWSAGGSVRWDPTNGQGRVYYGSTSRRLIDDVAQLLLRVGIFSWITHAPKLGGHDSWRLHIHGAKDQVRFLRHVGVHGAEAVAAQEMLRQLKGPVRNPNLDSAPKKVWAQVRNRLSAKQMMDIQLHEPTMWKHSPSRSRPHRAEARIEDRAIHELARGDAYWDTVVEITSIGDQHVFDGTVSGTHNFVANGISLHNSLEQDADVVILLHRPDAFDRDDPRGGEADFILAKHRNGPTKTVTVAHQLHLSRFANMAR

SMILES: COC(=O)c1c(NC(=O)c2ccc(OC(C)C)cc2)sc2c1CC(C)(C)NC2(C)C
- IC50 (Vero [1]): 23.3 µM (active)
- IC50 [2]: > 20 µM (inactive)
- EC50 [3]: 8.35 µM (active)
- CC50 (Vero [4]): > 25 µM (active)
- EC50 [5]: 8.41 µM (active)
- EC50 [6]: 8.31 µM (active)

SMILES: CCc1ccc(C2=NN(c3ccc(S(N)(=O)=O)cc3)C(c3ccc(F)cc3)C2)cc1 (centres undefined)
- EC50 [7]: 17.9 µM (active)
- EC50 [8]: 16.6 µM (active)
- CC50 [9]: 27.6 µM (active)

SMILES: O=C(CSc1nc2ccccc2n1-c1ccccc1)Nc1ncc(Cl)cc1Cl
- IC50 (Vero [1]): 4.63 µM (active)
- CC50 (Vero [4]): 22.1 µM (active)

SMILES: Cc1ccc2c(CN3CCN(Cc4ccccc4)CC3)cc(=O)oc2c1C
- EC50 [10]: < 0.1 µM (active)
- EC50 [11]: > 60 µM (not active)
- EC50 (cells [12]): 0.065 µM (active)

SMILES: Cc1ccc(C(=O)c2c(NC(=O)c3ccncc3)sc3c2CCCC3)cc1
- EC50 [10]: < 0.1 µM (active)
- EC50 [11]: > 60 µM (not active)
- EC50 (cells [12]): 0.266 µM (active)

SMILES: CCN(CC)CCN(C(=O)C1CCCCC1)c1nc2cc3c(cc2s1)OCO3
- EC50 [10]: < 0.1 µM (active)
- EC50 [11]: > 60 µM (not active)
- EC50 (cells [12]): 0.514 µM (active)

SMILES: Cc1ccc(O)c(C(=O)CC(=O)c2cccc(F)c2)c1
- IC50 (Vero [1]): 21.1 µM (active)
- CC50 (Vero [4]): > 25 µM (active)

SMILES: C=CCNc1nnc(Sc2ncccc2[N+](=O)[O-])s1
- EC50 [13]: 10.3 µM (inconclusive)
- IC50 (cells [14]): 3.81 µM (active)
- EC50 [15]: > 120 µM (not active)
- CC50 [16]: 33.4 µM (active)
- EC50 (H4): 17.8 µM (active)

SMILES: CCOC(=O)Cc1cc(=O)n(-c2nc3ccccc3s2)[nH]1
- IC50 (Large T antigen): > 100 µM (active)

SMILES: CCOC(=O)c1nc2sc3c(c2c(=O)[nH]1)CCCC3
- EC50 [17]: > 112 µM (not active)

SMILES: CCCCCc1cc(=O)oc2c(C(CCN(CC)CC)c3ccc(OC)cc3)c(OC)cc(OC)c12 (centres undefined)
- IC50 [2]: > 20 µM (inactive)
- AC50 (INS1): 10.8 µM (active)

SMILES: O=C(CCl)Nc1sccc1C(=O)c1ccccc1
- EC50 (Protein RecA): 4.78 µM (active)
- CC50 [9]: 18.1 µM (active)
- AC50 [18]: 4.8 µM (active)
